Experimental data: patent US20230024302A1, “2,3,5-TRISUBSTITUTED PYRAZOLO[1,5-A]PYRIMIDINE COMPOUNDS” (Arcus Biosciences, Inc., priority 2019, published 2023)
Read-outs that look alike come from different tables or passages of the source.

How the values were obtained:
PI3Kγ = target: T1, PI3Kγ (Homo sapiens, UniProt P48736); experiment: PI3Kγ cellular assay in THP-1 cells (AKT pS473 AlphaLISA); assay type: cell-based
T1 construct: host or cells: THP-1
Procedure, shortened: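 Endogenous AKT S473 phosphorylation, detected by AlphaLISA in lysates, serves as the PI3Kγ activity read-out in stimulated, serum-starved THP-1 cells (1.8×10^5/well).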

PI3Kγ (p120γ) = target: T2, PI3Kγ (p120γ) (Homo sapiens, UniProt P48736); experiment: Inhibition of PI3K kinase activity (ADP Glo), PI3Kγ; conditions: read-out: biochemical potency (PI3Kγ IC50)
T2 construct: purchased Promega V1761
T2 sequence (P48736 whole entry): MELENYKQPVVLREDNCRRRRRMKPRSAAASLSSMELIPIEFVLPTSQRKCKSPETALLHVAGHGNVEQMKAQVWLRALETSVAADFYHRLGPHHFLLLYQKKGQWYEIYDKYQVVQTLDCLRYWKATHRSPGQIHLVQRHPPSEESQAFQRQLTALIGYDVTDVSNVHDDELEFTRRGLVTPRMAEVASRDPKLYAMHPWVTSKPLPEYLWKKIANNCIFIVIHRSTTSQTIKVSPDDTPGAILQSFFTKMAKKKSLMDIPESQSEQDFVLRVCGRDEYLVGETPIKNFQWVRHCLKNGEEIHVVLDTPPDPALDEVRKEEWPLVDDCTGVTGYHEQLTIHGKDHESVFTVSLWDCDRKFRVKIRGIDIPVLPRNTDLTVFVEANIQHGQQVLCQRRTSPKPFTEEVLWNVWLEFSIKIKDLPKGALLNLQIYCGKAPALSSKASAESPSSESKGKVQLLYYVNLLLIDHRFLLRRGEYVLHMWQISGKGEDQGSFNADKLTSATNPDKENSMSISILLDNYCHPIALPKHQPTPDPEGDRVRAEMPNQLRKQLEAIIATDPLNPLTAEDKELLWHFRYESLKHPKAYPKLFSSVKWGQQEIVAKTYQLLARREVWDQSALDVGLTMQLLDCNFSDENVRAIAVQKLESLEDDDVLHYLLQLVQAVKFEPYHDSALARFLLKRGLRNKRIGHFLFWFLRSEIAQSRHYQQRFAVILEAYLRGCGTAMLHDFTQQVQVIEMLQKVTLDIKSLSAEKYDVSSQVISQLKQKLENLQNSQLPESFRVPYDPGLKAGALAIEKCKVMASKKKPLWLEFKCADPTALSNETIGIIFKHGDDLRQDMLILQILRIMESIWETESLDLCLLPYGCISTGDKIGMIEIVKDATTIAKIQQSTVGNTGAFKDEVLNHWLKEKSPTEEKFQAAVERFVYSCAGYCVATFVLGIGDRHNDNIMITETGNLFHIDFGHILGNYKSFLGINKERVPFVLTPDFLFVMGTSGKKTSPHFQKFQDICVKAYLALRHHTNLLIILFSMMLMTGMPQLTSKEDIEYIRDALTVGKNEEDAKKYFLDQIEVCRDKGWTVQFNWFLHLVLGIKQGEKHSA
Procedure, shortened: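 IC50 values come from a 4-parameter nonlinear fit of ADP-Glo luminescence, which measures ADP produced as PIP2 is phosphorylated to PIP3. The p120γ enzyme (2× stock 8 nM) sat with compound 1 h at rt before substrate (2× stocks: 50 μM ATP, 0.1 mg/ml PIP2) was added. Phosphorylation then proceeded 60 min at rt.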

[1] = Table 1, rhMCP-1 stimulated AKT pS473, read-out: cellular potency (PI3Kγ IC50)
[2] = Table 2, rhMCP-1 stimulated AKT pS473, read-out: cellular potency (PI3Kγ IC50)
[3] = Table 6, rhMCP-1 stimulated AKT pS473, read-out: cellular potency (PI3Kγ IC50)
[4] = AKT pS473, read-out: cellular potency (PI3Kγ IC50)
[5] = Table 3, rhMCP-1 stimulated AKT pS473, read-out: cellular potency (PI3Kγ IC50)

T1 sequence (P48736 whole entry): as above

C[C@@H](C1CC1)N1Cc2cc(-c3ccn4nc(N)c(C(=O)NC5(C#N)COC5)c4n3)cc(NS(C)(=O)=O)c2C1=O [Example 80, 2-Amino-N-(3-cyanooxetan-3-yl)-5-{2-[(1S)-1-cyclopropylethyl]-7-methanesulfonamido-1-oxo-2,3-dihydro-1H-isoindol-5-yl}pyrazolo[1,5-a]pyrimidine-3-carboxamide]
IC50 (PI3Kγ; [1]): < 0.1 µM
IC50 (PI3Kγ (p120γ); Table 1, p120γ): < 0.1 µM

Cc1cc(-c2ccn3nc(N)c(C(=O)NC4COCc5ccccc54)c3n2)cc2c1C(=O)N([C@@H](C)C1CC1)C2 (stereo partly shown) [Example 259]
IC50 (PI3Kγ; [2]): 0.1 to 1 µM
IC50 (PI3Kγ (p120γ); Table 2, p120γ): < 0.1 µM

CNC(=O)c1c(N)nn2ccc(-c3cc4c(c(NS(C)(=O)=O)c3)C(=O)N([C@@H](C)C3CC3)C4)nc12 [Example 73, 2-Amino-5-{2-[(1S)-1-cyclopropylethyl]-7-methanesulfonamido-1-oxo-2,3-dihydro-1H-isoindol-5-yl}-N-methylpyrazolo[1,5-a]pyrimidine-3-carboxamide]
IC50 (PI3Kγ; [1]): < 0.1 µM
IC50 (PI3Kγ (p120γ); Table 1, p120γ): < 0.1 µM

Cc1cc(-c2ccn3nc(N)c(C(=O)NC4(C(F)(F)F)CC4)c3n2)cc2c1C(=O)N([C@@H](C)C1CC1)C2 [Example 262]
IC50 (PI3Kγ; [2]): 0.1 to 1 µM
IC50 (PI3Kγ (p120γ); Table 2, p120γ): < 0.1 µM

Cc1cc(-c2ccn3nc(N)c(C(=O)N[C@@H]4C[C@@H]4F)c3n2)cc2c1C(=O)N([C@@H](C)C1CC1)C2 [Example 263]
IC50 (PI3Kγ; [2]): 0.1 to 1 µM
IC50 (PI3Kγ (p120γ); Table 2, p120γ): < 0.1 µM

C[C@@H](C1CC1)N1Cc2cc(-c3ccn4nc(N)c(C(=O)N[C@@H]5CCC(=O)NC5)c4n3)cc(OC(F)(F)F)c2C1=O [Example 412]
IC50 (PI3Kγ; [3]): 0.1 to 1 µM
IC50 (PI3Kγ (p120γ); Table 6, p120γ): < 0.1 µM

Cc1cc(-c2ccn3nc(N)c(C(=O)NC[C@@H]4CCOC4)c3n2)cc2c1C(=O)N([C@@H](C)C1CC1)C2 [Example 238]
IC50 (PI3Kγ; [2]): 0.1 to 1 µM
IC50 (PI3Kγ (p120γ); Table 2, p120γ): < 0.1 µM

Cc1cc(-c2ccn3nc(N)c(C(=O)N[C@H]4CCNC4)c3n2)cc2c1C(=O)N([C@@H](C)C1CC1)C2 [Example 232]
IC50 (PI3Kγ; [2]): 0.1 to 1 µM
IC50 (PI3Kγ (p120γ); Table 2, p120γ): < 0.1 µM

Cc1cc(-c2ccn3nc(N)c(C(=O)Nc4cnn(C)c4)c3n2)cc2c1C(=O)N([C@@H](C)C1CC1)C2 [Example 18, 2-Amino-5-{2-[(1S)-1-cyclopropylethyl]-7-methyl-1-oxo-2,3-dihydro-1H-isoindol-5-yl}-N-(1-methyl-1H-pyrazol-4-yl)pyrazolo[1,5-a]pyrimidine-3-carboxamide]
IC50 (PI3Kγ; [1]): < 0.1 µM
IC50 (PI3Kγ (p120γ); Table 1, p120γ): < 0.1 µM

COc1ccc(NC(=O)c2c(N)nn3ccc(-c4cc5c(c(NS(C)(=O)=O)c4)C(=O)N([C@@H](C)C4CC4)C5)nc23)cc1 [Example 380]
IC50 (PI3Kγ; [4]): 0.1 to 1 µM
IC50 (PI3Kγ (p120γ)): < 0.1 µM

C[C@@H](C1CC1)N1Cc2cc(-c3ccn4nc(N)c(C(=O)N[C@H]5CC[C@@](C)(O)CC5)c4n3)cc(N3CCOCC3)c2C1=O [Example 154, 2-Amino-5-{2-[(1S)-1-cyclopropylethyl]-7-(morpholin-4-yl)-1-oxo-2,3-dihydro-1H-isoindol-5-yl}-N-[cis-4-hydroxy-4-methylcyclohexyl]pyrazolo[1,5-a]pyrimidine-3-carboxamide]
IC50 (PI3Kγ; [1]): < 0.1 µM
IC50 (PI3Kγ (p120γ); Table 1, p120γ): < 0.1 µM

CC[C@H](CO)N1Cc2cc(-c3ccn4nc(N)c(C(=O)NC5CC5)c4n3)cc(C)c2C1=O [Example 308]
IC50 (PI3Kγ; [2]): 0.1 to 1 µM
IC50 (PI3Kγ (p120γ); Table 2, p120γ): < 0.1 µM

C[C@@H](C1CC1)N1Cc2cc(-c3ccn4nc(N)c(C(=O)NC5CC5)c4n3)cc(N(C)S(C)(=O)=O)c2C1=O [Example 114, 2-Amino-N-cyclopropyl-5-{2-[(1S)-1-cyclopropylethyl]-7-(N-methylmethanesulfonamido)-1-oxo-2,3-dihydro-1H-isoindol-5-yl}pyrazolo[1,5-a]pyrimidine-3-carboxamide]
IC50 (PI3Kγ; [1]): < 0.1 µM
IC50 (PI3Kγ (p120γ); Table 1, p120γ): < 0.1 µM

CC[C@H](N1Cc2cc(-c3ccn4nc(N)c(C(=O)NC5(C)COC5)c4n3)cc(NS(C)(=O)=O)c2C1=O)C(F)(F)F [Example 125, 2-Amino-5-{7-methanesulfonamido-1-oxo-2-[(2S)-1,1,1-trifluorobutan-2-yl]-2,3-dihydro-1H-isoindol-5-yl}-N-(3-methyloxetan-3-yl)pyrazolo[1,5-a]pyrimidine-3-carboxamide]
IC50 (PI3Kγ; [1]): < 0.1 µM
IC50 (PI3Kγ (p120γ); Table 1, p120γ): < 0.1 µM

Cc1cc(-c2ccn3nc(N)c(C(=O)N[C@H]4CC[C@@](C)(O)CC4)c3n2)cc2c1C(=O)N([C@@H](C)C1CC1)C2 [Example 2, 2-Amino-5-{2-[(1S)-1-cyclopropylethyl]-7-methyl-1-oxo-2,3-dihydro-1H-isoindol-5-yl}-N-[cis-4-hydroxy-4-methylcyclohexyl]pyrazolo[1,5-a]pyrimidine-3-carboxamide]
IC50 (PI3Kγ; [1]): < 0.1 µM
IC50 (PI3Kγ (p120γ); Table 1, p120γ): < 0.1 µM

COCC(NC(=O)c1c(N)nn2ccc(-c3cc4c(c(C(F)(F)F)c3)C(=O)N([C@@H](C)C3CC3)C4)nc12)C(C)C (stereo partly shown) [Example 364]
IC50 (PI3Kγ; [5]): 0.1 to 1 µM
IC50 (PI3Kγ (p120γ); Table 3, p120γ): < 0.1 µM

COc1cncc(NC(=O)c2c(N)nn3ccc(-c4cc5c(c(NS(C)(=O)=O)c4)C(=O)N([C@@H](C)C4CC4)C5)nc23)c1 [Example 387]
IC50 (PI3Kγ; [4]): 0.1 to 1 µM
IC50 (PI3Kγ (p120γ)): < 0.1 µM

Cc1cc(-c2ccn3nc(N)c(C(=O)NC4COC4)c3n2)cc2c1C(=O)N(CC(C)(C)O)C2 [Example 320]
IC50 (PI3Kγ; [2]): 0.1 to 1 µM
IC50 (PI3Kγ (p120γ); Table 2, p120γ): < 0.1 µM

CC(C)[C@H](CO)NC(=O)c1c(N)nn2ccc(-c3cc4c(c(NS(C)(=O)=O)c3)C(=O)N([C@@H](C)C3CC3)C4)nc12 [Example 96, 2-Amino-5-{2-[(1S)-1-cyclopropylethyl]-7-methanesulfonamido-1-oxo-2,3-dihydro-1H-isoindol-5-yl}-N-[(2R)-1-hydroxy-3-methylbutan-2-yl]pyrazolo[1,5-a]pyrimidine-3-carboxamide]
IC50 (PI3Kγ; [1]): < 0.1 µM
IC50 (PI3Kγ (p120γ); Table 1, p120γ): < 0.1 µM

CCc1cc(-c2ccn3nc(N)c(C(=O)NC4CC4)c3n2)cc2c1C(=O)N([C@@H](C)C1CC1)C2 [Example 450]
IC50 (PI3Kγ; [3]): 0.1 to 1 µM
IC50 (PI3Kγ (p120γ); Table 6, p120γ): < 0.1 µM

Cc1cc(-c2ccn3nc(N)c(C(=O)N[C@@H](C)C4CC4)c3n2)cc2c1C(=O)N([C@@H](C)C1CC1)C2 [Example 220]
IC50 (PI3Kγ; [2]): 0.1 to 1 µM
IC50 (PI3Kγ (p120γ); Table 2, p120γ): < 0.1 µM

Cc1cc(-c2ccn3nc(N)c(C(=O)N[C@@H]4CC[C@H](O)C4)c3n2)cc2c1C(=O)N([C@@H](C)C1CC1)C2 [Example 197]
IC50 (PI3Kγ; [2]): 0.1 to 1 µM
IC50 (PI3Kγ (p120γ); Table 2, p120γ): < 0.1 µM

C[C@@H](C1CC1)N1Cc2cc(-c3ccn4nc(N)c(C(=O)N[C@H]5CC[C@@](C)(O)CC5)c4n3)cc(NS(C)(=O)=O)c2C1=O [Example 89, 2-Amino-5-{2-[(1S)-1-cyclopropylethyl]-7-methanesulfonamido-1-oxo-2,3-dihydro-1H-isoindol-5-yl}-N-[cis-4-hydroxy-4-methylcyclohexyl]pyrazolo[1,5-a]pyrimidine-3-carboxamide]
IC50 (PI3Kγ; [1]): < 0.1 µM
IC50 (PI3Kγ (p120γ); Table 1, p120γ): < 0.1 µM

C[C@H](NC(=O)c1c(N)nn2ccc(-c3cc4c(c(NS(C)(=O)=O)c3)C(=O)N([C@@H](C)C3CC3)C4)nc12)C(N)=O [Example 382]
IC50 (PI3Kγ; [4]): 0.1 to 1 µM
IC50 (PI3Kγ (p120γ)): < 0.1 µM

Cc1cc(-c2ccn3nc(N)c(C(=O)NCC4(CO)CC4)c3n2)cc2c1C(=O)N([C@@H](C)C1CC1)C2 [Example 250]
IC50 (PI3Kγ; [2]): 0.1 to 1 µM
IC50 (PI3Kγ (p120γ); Table 2, p120γ): < 0.1 µM

CCS(=O)(=O)c1cc(-c2ccn3nc(N)c(C(=O)NC4CC4)c3n2)cc2c1C(=O)N([C@@H](C)C1CC1)C2 [Example 133, 2-Amino-N-cyclopropyl-5-{2-[(1S)-1-cyclopropylethyl]-7-(ethanesulfonyl)-1-oxo-2,3-dihydro-1H-isoindol-5-yl}pyrazolo[1,5-a]pyrimidine-3-carboxamide]
IC50 (PI3Kγ; [1]): < 0.1 µM
IC50 (PI3Kγ (p120γ); Table 1, p120γ): < 0.1 µM

Cc1cc(-c2ccn3nc(N)c(C(=O)N[C@H]4CC[C@H](N)CC4)c3n2)cc2c1C(=O)N([C@@H](C)C1CC1)C2 [Example 184]
IC50 (PI3Kγ; [2]): 0.1 to 1 µM
IC50 (PI3Kγ (p120γ); Table 2, p120γ): < 0.1 µM

Cc1cc(-c2ccn3nc(N)c(C(=O)NC4CC4)c3n2)cc2c1C(=O)N([C@H]1CC[C@H](O)C1)C2 [Example 323]
IC50 (PI3Kγ; [2]): 0.1 to 1 µM
IC50 (PI3Kγ (p120γ); Table 2, p120γ): < 0.1 µM

C[C@@H](C1CC1)N1Cc2cc(-c3ccn4nc(N)c(C(=O)NC[C@H](O)CO)c4n3)cc(C(F)(F)F)c2C1=O [Example 348]
IC50 (PI3Kγ; [5]): 0.1 to 1 µM
IC50 (PI3Kγ (p120γ); Table 3, p120γ): < 0.1 µM

Cc1cc(-c2ccn3nc(N)c(C(=O)NC(C)(C)c4ccncc4)c3n2)cc2c1C(=O)N([C@@H](C)C1CC1)C2 [Example 248]
IC50 (PI3Kγ; [2]): 0.1 to 1 µM
IC50 (PI3Kγ (p120γ); Table 2, p120γ): < 0.1 µM

Cc1cc(-c2ccn3nc(N)c(C(=O)NC[C@H](C)O)c3n2)cc2c1C(=O)N([C@@H](C)C1CC1)C2 [Example 234]
IC50 (PI3Kγ; [2]): 0.1 to 1 µM
IC50 (PI3Kγ (p120γ); Table 2, p120γ): < 0.1 µM

C[C@@H](C1CC1)N1Cc2cc(-c3ccn4nc(N)c(C(=O)N[C@@H]5CCC[C@H](N(C)C)C5)c4n3)cc(C(F)(F)F)c2C1=O [Example 362]
IC50 (PI3Kγ; [5]): 0.1 to 1 µM
IC50 (PI3Kγ (p120γ); Table 3, p120γ): < 0.1 µM

C[C@H](N1Cc2cc(-c3ccn4nc(N)c(C(=O)Nc5cccnc5)c4n3)cc(NS(C)(=O)=O)c2C1=O)C(F)(F)F [Example 401]
IC50 (PI3Kγ; [4]): 0.1 to 1 µM
IC50 (PI3Kγ (p120γ)): < 0.1 µM

Cc1cc(-c2ccn3nc(N)c(C(=O)N[C@H](C)CO)c3n2)cc2c1C(=O)N([C@@H](C)C1CC1)C2 [Example 206]
IC50 (PI3Kγ; [2]): 0.1 to 1 µM
IC50 (PI3Kγ (p120γ); Table 2, p120γ): < 0.1 µM

Cc1cc(-c2ccn3nc(N)c(C(=O)N[C@@H](C)C4CCOCC4)c3n2)cc2c1C(=O)N([C@@H](C)C1CC1)C2 [Example 200]
IC50 (PI3Kγ; [2]): 0.1 to 1 µM
IC50 (PI3Kγ (p120γ); Table 2, p120γ): < 0.1 µM
